According to PMC3192784, “A Potent Inhibitor of SIK2, 3, 3′, 7-Trihydroxy-4′-Methoxyflavon (4′-O-Methylfisetin), Promotes Melanogenesis in B16F10 Melanoma Cells” (PLoS ONE, 2011):

How the values were obtained:
[1] = biological target: T1, SIK2 (salt inducible kinase 2) (Mus musculus, UniProt Q8CFH6); assay: in vitro kinase ELISA with GST-TORC2 peptide substrate; format: biochemical
T1 construct: GST-SIK2 expressed in COS-7 cells

[2] = biological target: T1, SIK2 (salt inducible kinase 2); assay: as above; format: biochemical; remark: listed apart in the source

T1 sequence (Q8CFH6 whole entry): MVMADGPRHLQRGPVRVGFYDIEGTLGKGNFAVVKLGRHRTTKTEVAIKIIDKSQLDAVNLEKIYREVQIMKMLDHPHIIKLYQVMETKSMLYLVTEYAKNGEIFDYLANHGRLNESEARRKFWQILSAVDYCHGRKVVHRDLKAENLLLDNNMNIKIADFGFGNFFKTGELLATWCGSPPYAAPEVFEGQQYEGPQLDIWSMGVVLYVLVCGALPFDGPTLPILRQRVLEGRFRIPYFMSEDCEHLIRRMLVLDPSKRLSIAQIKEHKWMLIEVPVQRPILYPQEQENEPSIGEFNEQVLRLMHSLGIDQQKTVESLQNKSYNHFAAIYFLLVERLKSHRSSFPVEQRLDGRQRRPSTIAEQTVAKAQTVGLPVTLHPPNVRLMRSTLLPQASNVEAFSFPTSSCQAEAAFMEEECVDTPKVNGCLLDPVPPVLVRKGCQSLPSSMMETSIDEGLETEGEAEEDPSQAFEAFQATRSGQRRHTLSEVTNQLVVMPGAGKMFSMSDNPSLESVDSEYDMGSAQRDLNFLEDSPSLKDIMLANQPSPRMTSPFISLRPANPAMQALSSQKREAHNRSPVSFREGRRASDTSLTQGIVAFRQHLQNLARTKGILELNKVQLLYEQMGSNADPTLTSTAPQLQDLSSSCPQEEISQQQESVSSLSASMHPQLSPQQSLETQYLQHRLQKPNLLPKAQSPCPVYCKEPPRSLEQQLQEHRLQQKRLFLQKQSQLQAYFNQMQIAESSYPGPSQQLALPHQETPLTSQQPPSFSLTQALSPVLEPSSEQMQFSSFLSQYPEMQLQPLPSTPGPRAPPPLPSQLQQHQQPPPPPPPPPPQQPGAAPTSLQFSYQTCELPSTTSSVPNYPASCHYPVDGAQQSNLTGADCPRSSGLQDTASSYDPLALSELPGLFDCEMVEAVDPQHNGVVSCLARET

| Structure (SMILES) | IC50 [1] | in vitro kinase ELISA with GST-TORC2 peptide substrate [2] |
| --- | --- | --- |
| O=c1c(O)c(-c2ccc(O)c(O)c2)oc2cc(O)cc(O)c12 [quercetin] | 500 nM | – |
| O=c1cc(-c2ccc(O)c(O)c2)oc2cc(O)cc(O)c12 [luteolin] | – | efficiency of SIK2-kinase inhibition in vitro by their non-methylated cognates (fisetin > luteolin > quercetin) |
| COc1ccc(-c2cc(=O)c3c(O)cc(O)cc3o2)cc1O [diosmetin] | – | 50 to 500 nM |
| O=c1c(O)c(-c2ccc(O)c(O)c2)oc2cc(O)ccc12 [fisetin] | – | ~ 50 nM |
